Laboratory results published in patent publication US8980944B2 (Gemmus Pharma Inc., priority 2006, dated 2015).
Values joined by “and” are separate entries in the source; they are usually repeats but may differ in a detail not shown here. Equal entries are not always repeated.

Legend:
TNFα [1] = test: Poly(I:C)-stimulated human monocyte-derived dendritic cells, TNFα release (ELISA); type: cell-based; conditions: one micromolar; for TNFα percent inhibition from untreated control: Poly IC-stimulated monocyte-derived dendritic cells, 18 hours
clinical = conditions: human, in vivo, po
TNFα [2] = test: ConA-stimulated human peripheral blood lymphocytes, TNFα release (ELISA); conditions: human T cells, ConA stimulation
IFN-γ [3] = test: ConA-stimulated human peripheral blood lymphocytes, IFN-γ release (ELISA); conditions: for Percent inhibition of IFN-γ compared to uninhibited control: human T cells, ConA stimulation
IL-12 = test: LPS-stimulated human monocyte-derived dendritic cells, IL-12 release (ELISA); conditions: LPS stimulation
[4] = Study A: tolerance and pharmacokinetics in volunteers after single oral dose; conditions: human, in vivo
IL-2 = test: Anti-CD3/CD28-stimulated human CD8 cells, IL-2 release (multi-cytokine bead immunoassay)
IFN-γ [5] = test: Anti-CD3/CD28-stimulated human CD8 cells, IFN-γ release (multi-cytokine bead immunoassay)
GM-CSF = test: Anti-CD3/CD28-stimulated human CD8 cells, GM-CSF release (multi-cytokine bead immunoassay); conditions: 1 μM Nileprost, Anti-CD3/CD28 stimulation, individual donors 1-4

## CCCCC(C)[C@H](O)/C=C/[C@@H]1[C@H]2C/C(=C(\C#N)CCCC(=O)O)O[C@H]2C[C@H]1O (stereo partly drawn) [Nileprost]
TNFα [1]; Donor 1
  TNFα percent inhibition from untreated control: 89%
TNFα [1]; Donor 2
  TNFα percent inhibition from untreated control: 45%
TNFα [1]; Donor 3
  TNFα percent inhibition from untreated control: 74%
TNFα [1]; monocyte-derived dendritic cells
  Poly(I:C)-induced TNFα: significant decrease
clinical; 50 ug
  Cmax: 0.566 ng/mL and 1.4 nM
clinical; 75 ug
  Cmax: 0.869 ng/mL and 2.2 nM
clinical; 112 ug
  Cmax: 0.803 ng/mL and 2 nM
clinical; 170 ug
  Cmax: 0.954 ng/mL and 2.4 nM
clinical; 255 ug
  Cmax: 1.71 ng/mL and 4.3 nM
clinical; 375 ug
  Cmax: 1.72 ng/mL and 4.3 nM
TNFα [2]; Homo sapiens, T-cell, read-out: Percent inhibition of TNF compared to uninhibited control, Nileprost 1 nM, individual donors 3-4
  inhibition at 0.001 µM: 24%
TNFα [2]; Homo sapiens, T-cell, read-out: Percent inhibition of TNF compared to uninhibited control, Nileprost 2.5 nM, individual donors 1-2
  inhibition at 0.0025 µM: 24%
TNFα [2]; Homo sapiens, T-cell, read-out: Percent inhibition of TNF compared to uninhibited control, Nileprost 3 nM, individual donors 3-4
  inhibition at 0.003 µM: 28%
TNFα [2]; Homo sapiens, T-cell, read-out: Percent inhibition of TNF compared to uninhibited control, Nileprost 5 nM, individual donors 1-2
  inhibition at 0.005 µM: 47%
TNFα [2]; Homo sapiens, T-cell, read-out: Percent inhibition of TNF compared to uninhibited control, Nileprost 9 nM, individual donors 3-4
  inhibition at 0.009 µM: 53%
TNFα [2]; Homo sapiens, T-cell, read-out: Percent inhibition of TNF compared to uninhibited control, Nileprost 10 nM, individual donors 1-2
  inhibition at 0.01 µM: 46%
TNFα [2]; Homo sapiens, T-cell, read-out: Percent inhibition of TNF compared to uninhibited control, Nileprost 20 nM, individual donors 1-2
  inhibition at 0.02 µM: 50%
TNFα [2]; Homo sapiens, T-cell, read-out: Percent inhibition of TNF compared to uninhibited control, Nileprost 83 nM, individual donors 3-4
  inhibition at 0.083 µM: 61%
TNFα [2]; Nileprost 0.04 nM, individual donors 3-4
  Percent inhibition of TNF compared to uninhibited control: 1% and 11%
TNFα [2]; Nileprost 0.11 nM, individual donors 3-4
  Percent inhibition of TNF compared to uninhibited control: 4% and 16%
TNFα [2]; Nileprost 0.5 nM, individual donors 1-2
  Percent inhibition of TNF compared to uninhibited control: 7% and 1%
TNFα [2]; Nileprost 1 nM, individual donors 3-4
  Percent inhibition of TNF compared to uninhibited control: 37%
TNFα [2]; Nileprost 1.25 nM, individual donors 1-2
  Percent inhibition of TNF compared to uninhibited control: 14% and 5%
TNFα [2]; Nileprost 2.5 nM, individual donors 1-2
  Percent inhibition of TNF compared to uninhibited control: 19%
TNFα [2]; Nileprost 3 nM, individual donors 3-4
  Percent inhibition of TNF compared to uninhibited control: 48%
TNFα [2]; Nileprost 5 nM, individual donors 1-2
  Percent inhibition of TNF compared to uninhibited control: 36%
TNFα [2]; Nileprost 9 nM, individual donors 3-4
  Percent inhibition of TNF compared to uninhibited control: 67%
TNFα [2]; Nileprost 10 nM, individual donors 1-2
  Percent inhibition of TNF compared to uninhibited control: 49%
TNFα [2]; Nileprost 83 nM, individual donors 3-4
  Percent inhibition of TNF compared to uninhibited control: 76%
TNFα [2]; Nileprost 250 nM, individual donors 3-4
  Percent inhibition of TNF compared to uninhibited control: 49% and 76%
IFN-γ [3]; Nileprost 0.04 nM, individual donors 5-8
  Percent inhibition of IFN-γ compared to uninhibited control: 16% and 7% and 9% and 27%
IFN-γ [3]; Nileprost 0.11 nM, individual donors 5-8
  Percent inhibition of IFN-γ compared to uninhibited control: 22% and 16% and 34%
IFN-γ [3]; Nileprost 1 nM, individual donors 5-8
  Percent inhibition of IFN-γ compared to uninhibited control: 43% and 32% and 24% and 51%
IFN-γ [3]; Nileprost 1.25 nM, individual donors 1-4
  Percent inhibition of IFN-γ compared to uninhibited control: 11%
IFN-γ [3]; Nileprost 2.5 nM, individual donors 1-4
  Percent inhibition of IFN-γ compared to uninhibited control: 43%
IFN-γ [3]; Nileprost 3 nM, individual donors 5-8
  Percent inhibition of IFN-γ compared to uninhibited control: 56% and 46% and 22% and 71%
IFN-γ [3]; Nileprost 5 nM, individual donors 1-4
  Percent inhibition of IFN-γ compared to uninhibited control: 48% and 56%
IFN-γ [3]; Nileprost 9 nM, individual donors 5-8
  Percent inhibition of IFN-γ compared to uninhibited control: 59% and 60% and 48% and 73%
IFN-γ [3]; Nileprost 10 nM, individual donors 1-4
  Percent inhibition of IFN-γ compared to uninhibited control: 43%
IFN-γ [3]; Nileprost 20 nM, individual donors 1-4
  Percent inhibition of IFN-γ compared to uninhibited control: 56% and 67%
IFN-γ [3]; Nileprost 83 nM, individual donors 5-8
  Percent inhibition of IFN-γ compared to uninhibited control: 57% and 60% and 65% and 85%
IFN-γ [3]; Nileprost 250 nM, individual donors 5-8
  Percent inhibition of IFN-γ compared to uninhibited control: 59% and 76% and 57% and 83%
IFN-γ [3]; dose responsively, ConA-stimulated human lymphocytes
  inhibitory activity in the T lymphocyte Th-1 cytokine release: very high inhibitory activity
IL-12
  inhibitory activity in human monocyte-derived dendritic cell (DC) cytokine release: very high inhibitory activity
[4]; 32 ug
  Cmax: 0.84 ng/mL and 2.1 nM
[4]; 65 ug
  Cmax: 0.929 ng/mL and 2.3 nM
IL-2; 1 μM Nileprost, Anti-CD3/CD28 stimulation, individual donors 1-4
  Percent inhibition of IL-2 compared to uninhibited control: 70%
IL-2; Homo sapiens, read-out: Percent inhibition of IL-2 compared to uninhibited control, 1 μM Nileprost, Anti-CD3/CD28 stimulation, individual donors 1-4
  inhibition at 1 µM: 71%
IFN-γ [5]; 1 μM Nileprost, human CD8 cells, Anti-CD3/CD28 stimulation, individual donors 1-4
  Percent inhibition of IFN-γ compared to uninhibited control: 59% and 80%
IFN-γ [5]; IFN-γ, GM-CSF and IL-2, anti-CD3/CD28 stimulation
  inhibitory activity in the cytotoxic CD8+ lymphocyte cytokine release: very high inhibitory activity
GM-CSF
  Percent inhibition of GM-CSF compared to uninhibited control: 65% and 61%
